Measurements reported in PMC9127750, “Structure-based design of CDC42 effector interaction inhibitors for the treatment of cancer” (Cell reports, 2022).
Several values for one entry are separate records, joined by “and”; a condition that tells them apart may be missing. Equal entries are not always repeated.

System: WM3248 melanoma cells, 486 antibodies
Test: Reverse phase protein arrays (RPPA)
Assay type: cell-based, Human
Source text: Pellets were snap frozen in liquid nitrogen and shipped to MD Anderson Cancer Center core RPPA facility for RPPA analysis (Table S5). Three biological replicates for each sample were generated.
Nomenclatures on the RPPA heatmaps: name_of_antibody.species_of_antibody.status_of_antibody. V - antibody validated; C - validation of antibody in progress; Q - antibody nonspecific; E – under evaluation; antibodies raised in M - mouse, G - goat, R - rabbit, or T - rat.

[1] = level 10 normalized to 0, mean of 3

CN(C)c1cccc(Nc2cc(-c3ccccc3)nc(C3CCNCC3)n2)c1 [ARN22089, N1,N1-dimethyl-N3-(6-phenyl-2-(piperidin-4-yl)pyrimidin-4-yl)benzene-1,3-diamine]
INPP4b.R.C Norm_5 (level 5 vs 0, replicates): 0.976 and 1.019
IR.b.R.C Norm_5 (level 5 vs 0, replicates): 1.056 and 1.010
IRF.1.R.V Norm_5 (level 5 vs 0, replicates): 0.974 and 0.981 and 1.030
IRF.3.R.V Norm_5 (level 5 vs 0, replicates): 0.924 and 0.890 and 0.996
IRS1.R.V Norm_5 (level 5 vs 0, replicates): 1.029 and 1.046 and 0.995
IRS2.R.C Norm_5 (level 5 vs 0, replicates): 1.195 and 0.736 and 1.046
JAB1.M.C Norm_5 (level 5 vs 0, replicates): 0.954 and 0.981 and 0.972
JNK2.R.V Norm_5 (level 5 vs 0, replicates): 0.643 and 1.507
JNK_pT183_Y185.R.C Norm_5 (level 5 vs 0, replicates): 1.060 and 0.929 and 0.988
Jagged1.R.V Norm_5 (level 5 vs 0, replicates): 1.010 and 1.054 and 0.889
Jak2.R.V Norm_5 (level 5 vs 0, replicates): 0.979 and 0.991
KAP1.R.V Norm_5 (level 5 vs 0, replicates): 1.116 and 1.063 and 1.099
KEAP1.R.V Norm_5 (level 5 vs 0, replicates): 1.026 and 0.913 and 0.925
LAD1.R.V Norm_5 (level 5 vs 0, replicates): 0.952 and 0.910 and 1.029
LC3A.B.R.C Norm_5 (level 5 vs 0, replicates): 1.119 and 0.843
LCN2.R.V Norm_5 (level 5 vs 0, replicates): 1.996 and 0.913 and 0.985
LDHA.R.C Norm_5 (level 5 vs 0, replicates): 1.253 and 1.735 and 0.318
LRP6_pS1490.R.V Norm_5 (level 5 vs 0, replicates): 1.015 and 1.011 and 1.114
Lasu1.R.V Norm_5 (level 5 vs 0, replicates): 0.982 and 1.009 and 0.926
Lck.R.V Norm_5 (level 5 vs 0, replicates): 1.005 and 1.060 and 0.966
Lyn.R.V Norm_5 (level 5 vs 0, replicates): 0.801 and 0.941 and 0.791
MACC1.R.V Norm_5 (level 5 vs 0, replicates): 0.899 and 0.883 and 1.061
MAPK_pT202_Y204.R.C Norm_5 (level 5 vs 0, replicates): 1.017 and 0.736 and 0.856
MCT4.R.V Norm_5 (level 5 vs 0, replicates): 1.005 and 0.979 and 1.159
MDM2_pS166.R.V Norm_5 (level 5 vs 0, replicates): 1.021 and 1.261 and 0.787
MEK1.R.V Norm_5 (level 5 vs 0, replicates): 1.082 and 0.785 and 1.201
MEK1_pS217_S221.R.V Norm_5 (level 5 vs 0, replicates): 0.926
MEK2.R.V Norm_5 (level 5 vs 0, replicates): 1.048 and 1.127 and 0.942
MERIT40.R.C Norm_5 (level 5 vs 0, replicates): 0.988 and 1.019 and 0.961
MERIT40_pS29.R.V Norm_5 (level 5 vs 0, replicates): 1.133 and 1.001
METTL3.R.V Norm_5 (level 5 vs 0, replicates): 0.968 and 1.099 and 0.891
MIF.R.C Norm_5 (level 5 vs 0, replicates): 0.931 and 0.965 and 0.948
MIG6.R.V Norm_5 (level 5 vs 0, replicates): 0.932 and 0.886 and 1.000
MITF.R.V Norm_5 (level 5 vs 0, replicates): 0.975 and 1.014
MLH1.M.V Norm_5 (level 5 vs 0, replicates): 0.900 and 0.937 and 0.942
MLKL.R.V Norm_5 (level 5 vs 0, replicates): 0.966 and 0.982 and 0.886
MMP2.R.V Norm_5 (level 5 vs 0, replicates): 0.925 and 0.948 and 0.967
MMP14.R.V Norm_5 (level 5 vs 0, replicates): 1.097 and 1.257
MR1.M.C Norm_5 (level 5 vs 0, replicates): 0.897 and 0.992
MRAP.R.C Norm_5 (level 5 vs 0, replicates): 1.109 and 1.057 and 0.987
MSH2.R.C Norm_5 (level 5 vs 0, replicates): 0.939 and 1.022 and 0.901
MSH6.R.C Norm_5 (level 5 vs 0, replicates): 1.190 and 0.909
MSI2.R.C Norm_5 (level 5 vs 0, replicates): 1.108 and 1.110 and 1.024
MTCO1.M.V Norm_5 (level 5 vs 0, replicates): 0.944 and 0.964 and 1.334
MTSS1.M.C Norm_5 (level 5 vs 0, replicates): 0.924 and 0.926 and 1.000
Mcl.1.R.V Norm_5 (level 5 vs 0, replicates): 0.943 and 0.925 and 1.013
MelanA.R.C Norm_5 (level 5 vs 0, replicates): 0.973 and 1.097
Melanoma.gp100.R.C Norm_5 (level 5 vs 0, replicates): 1.016
Merlin.R.C Norm_5 (level 5 vs 0, replicates): 1.257 and 0.725
Midkine.R.V Norm_5 (level 5 vs 0, replicates): 0.866 and 0.942 and 0.987
Mitofusin.1.R.V Norm_5 (level 5 vs 0, replicates): 1.058 and 0.973
Mitofusin.2.R.V Norm_5 (level 5 vs 0, replicates): 0.945
Mnk1.R.V Norm_5 (level 5 vs 0, replicates): 1.014 and 0.983
mTOR.R.V Norm_5 (level 5 vs 0, replicates): 1.006 and 1.101 and 0.990
mTOR_pS2448.R.C Norm_5 (level 5 vs 0, replicates): 1.104 and 1.133 and 1.002
TSC1.R.C Norm_10 Average [1]: 0.899
TTF1.R.V Norm_10 Average [1]: 1.078
TUFM.R.V Norm_10 Average [1]: 1.221
Tuberin.R.V Norm_10 Average [1]: 0.835
Tuberin_pT1462.R.V Norm_10 Average [1]: 1.064
Twist.M.C Norm_10 Average [1]: 1.019
Tyro3.R.V Norm_10 Average [1]: 1.386
U.Histone.H2B.R.C Norm_10 Average [1]: 0.890
UBAC1.R.V Norm_10 Average [1]: 1.014
UBQLN4.M.C Norm_10 Average [1]: 0.961
UGT1A.M.V Norm_10 Average [1]: 1.050
UQCRC2.M.C Norm_10 Average [1]: 1.112
UVRAG.R.C Norm_10 Average [1]: 0.935
VASP.R.V Norm_10 Average [1]: 0.873
VAV1.R.C Norm_10 Average [1]: 0.923
VEGFR.2.R.V Norm_10 Average [1]: 0.957
VEGFR.2_pY1175.R.C Norm_10 Average [1]: 0.964
VHL.EPPK1.M.C Norm_10 Average [1]: 1.030
VHL.R.C Norm_10 Average [1]: 0.986
Vinculin.M.V Norm_10 Average [1]: 0.988
WIPI1.R.C Norm_10 Average [1]: 1.318
WIPI2.R.C Norm_10 Average [1]: 0.944
WTAP.R.V Norm_10 Average [1]: 1.224
Wee1.R.C Norm_10 Average [1]: 0.915
Wee1_pS642.R.C Norm_10 Average [1]: 0.900
XBP.1.G.C Norm_10 Average [1]: 1.193
